Read-outs that look alike come from different tables or passages of the source.
Test system: SSTR2 mutants
Assay: SSTRs Gi-mediated cAMP inhibition, GloSensor, HEK293, 5 μM forskolin, 15 min room temperature (SSTR2 mutants)
Assay type: cell-based, human
Set-up: Best-fit Bottom, cAMP inhibition / Best-fit Top, cAMP inhibition / Span, cAMP inhibition / Bottom (best-fit value) / Top (best-fit value) / Span (best-fit value) / Span (best-fit) / Bottom (best-fit) / Top (best-fit) / Best-fit Bottom / Best-fit Top / Best-fit Span / Top / Span: scale not given here
Experimental: The levels of the intracellular 3′, 5′-cyclic AMP (cAMP) were measured by the GloSensor cAMP assay (Promega) as described in the previous studies[28],[41] which has been widely used. The human full-length SSTRs and mutants were cloned into the pcDNA3.1+ vector with a HA signal sequence followed by a Flag tag at the N-terminus. HEK293 cells (ATCC, CRL-1573) were seeded into 6-well microplates at a density of 1.0 × 10^6 cells/well and cultured for 24 h at 37 °C with 5% CO2. Cells were then co-transfected with SSTR wild-type or mutants and GloSensor plasmids. After 24 h of transfection, the cells were dissociated with TrypLE™ Express Enzyme (1X) (Thermo Fisher Scientific) and collected by centrifugation at 500 × g for 5 min. Then the collected cells were suspended in Hank’s balanced salt solution [HBSS (Thermo Fisher Scientific)] supplemented with […] (YEASEN), and then the suspension cells were seeded into 96-well plates with 90 μl/well. After incubating at room temperature for 40 min, 5 μM forskolin and ligands diluted in HBSS were added to each well and the plates were incubated at room temperature for 15 min. […] were measured using the Synergy H1 microplate reader (BioTek) and the data presented are means of at least three independent experiments.

C[C@@H](O)[C@@H]1NC(=O)[C@H](CCCCN)NC(=O)[C@@H](Cc2c[nH]c3ccccc23)NC(=O)[C@H](Cc2ccccc2)NC(=O)[C@@H](NC(=O)[C@H](N)Cc2ccccc2)CSSC[C@@H](C(=O)N[C@H](CO)[C@@H](C)O)NC1=O [octreotide]
Top (best-fit value) (I284A-1, run 1): 116.3
EC50 (I284A-1, run 1, read-out: EC50 (best-fit value)): 1.36 nM
Bottom (best-fit value) (I284A-2, run 2): -11.95
LogEC50 (best-fit value) (I284A-2, run 2): -9.363
Span (best-fit value) (I284A-2, run 2): 136.5
Top (best-fit value) (I284A-2, run 2): 124.6
EC50 (I284A-2, run 2, read-out: EC50 (best-fit value)): 0.433 nM
Bottom (best-fit value) (I284A-3, run 3): -6.083
LogEC50 (best-fit value) (I284A-3, run 3): -8.813
Span (best-fit value) (I284A-3, run 3): 75.58
Top (best-fit value) (I284A-3, run 3): 69.5
EC50 (I284A-3, run 3, read-out: EC50 (best-fit value)): 1.54 nM
Impact on Gi protein pathway (I284ECL3A and K291(7.32)A): relatively small
Best-fit Bottom (K291A-1): -13.76
Best-fit Span (K291A-1): 86.2
Best-fit Top (K291A-1): 72.44
LogEC50 (K291A-1): -8.384
EC50 (K291A-1, read-out: EC50): 4 nM
Best-fit Bottom (K291A-2): -3.629
Best-fit Span (K291A-2): 91.53
Best-fit Top (K291A-2): 87.9
LogEC50 (K291A-2): -8.328
EC50 (K291A-2, read-out: EC50): 4.7 nM
Best-fit Bottom (K291A-3): 3.692
Best-fit Span (K291A-3): 104.2
Best-fit Top (K291A-3): 107.9
LogEC50 (K291A-3): -8.123
EC50 (K291A-3, read-out: EC50): 7.54 nM
Best-fit Bottom (L290A-1): 32.91
Best-fit Span (L290A-1): 84.91
Best-fit Top (L290A-1): 117.8
LogEC50 (L290A-1): -9.231
EC50 (L290A-1, read-out: EC50): 0.588 nM
Best-fit Span (L290A-2): 90.85
Best-fit Top (L290A-2): 95.5
LogEC50 (L290A-2): -9.519
Best-fit Bottom (L290A-3): 2.997
Best-fit Span (L290A-3): 94.23
Best-fit Top (L290A-3): 97.22
LogEC50 (L290A-3): -9.438
EC50 (L290A-3, read-out: EC50): 0.365 nM
Gi signaling of mutant (N276(6.55)A): still exerted Gi signaling activation
Bottom (best-fit) (N276A-1): -14.21
LogEC50 (best-fit) (N276A-1): -7.981
Span (best-fit) (N276A-1): 75.87
Top (best-fit) (N276A-1): 61.65
EC50 (N276A-1, read-out: EC50 (best-fit)): 10.4 nM
Bottom (best-fit) (N276A-2): 0.8581
LogEC50 (best-fit) (N276A-2): -7.561
Span (best-fit) (N276A-2): 112.9
Top (best-fit) (N276A-2): 113.7
EC50 (N276A-2, read-out: EC50 (best-fit)): 27.5 nM
Bottom (best-fit) (N276A-3): 2.316
LogEC50 (best-fit) (N276A-3): -7.587
Span (best-fit) (N276A-3): 109.8
Top (best-fit) (N276A-3): 112.1
EC50 (N276A-3, read-out: EC50 (best-fit)): 25.9 nM
Bottom (best-fit) (P220A-1): 19.71
LogEC50 (best-fit) (P220A-1): -9.136
Span (best-fit) (P220A-1): 47.88
Top (best-fit) (P220A-1): 67.58
EC50 (P220A-1, read-out: EC50 (best-fit)): 0.732 nM
Bottom (best-fit) (P220A-2): 10.44
LogEC50 (best-fit) (P220A-2): -8.311
Span (best-fit) (P220A-2): 101.1
Top (best-fit) (P220A-2): 111.6
EC50 (P220A-2, read-out: EC50 (best-fit)): 4.88 nM
Bottom (best-fit) (P220A-3): 7.137
LogEC50 (best-fit) (P220A-3): -8.347
Span (best-fit) (P220A-3): 101.3
Top (best-fit) (P220A-3): 108.4
EC50 (P220A-3, read-out: EC50 (best-fit)): 4.5 nM
Bottom (best-fit value) (P286A-1, run 1): -1.561
LogEC50 (best-fit value) (P286A-1, run 1): -9.311
Span (best-fit value) (P286A-1, run 1): 110.5
Top (best-fit value) (P286A-1, run 1): 108.9
EC50 (P286A-1, run 1, read-out: EC50 (best-fit value)): 0.489 nM
Bottom (best-fit value) (P286A-2, run 2): -0.685
LogEC50 (best-fit value) (P286A-2, run 2): -9.269
Span (best-fit value) (P286A-2, run 2): 107.2
Top (best-fit value) (P286A-2, run 2): 106.5
EC50 (P286A-2, run 2, read-out: EC50 (best-fit value)): 0.539 nM
Bottom (best-fit value) (P286A-3, run 3): -0.6493
LogEC50 (best-fit value) (P286A-3, run 3): -9.076
Span (best-fit value) (P286A-3, run 3): 92.48
Top (best-fit value) (P286A-3, run 3): 91.83
EC50 (P286A-3, run 3, read-out: EC50 (best-fit value)): 0.84 nM
Best-fit Bottom (S279A-1): 9.876
Best-fit Span (S279A-1): 98.05
Best-fit Top (S279A-1): 107.9
LogEC50 (S279A-1): -9.015
EC50 (S279A-1, read-out: EC50): 0.966 nM
Best-fit Span (S279A-2): 101.7
Best-fit Top (S279A-2): 106.6
LogEC50 (S279A-2): -8.897
EC50 (S279A-2, read-out: EC50): 1.27 nM
Best-fit Bottom (S279A-3): 4.156
Best-fit Span (S279A-3): 86.31
Best-fit Top (S279A-3): 90.47
LogEC50 (S279A-3): -8.897
Bottom (best-fit value) (S285A-1, run 1): 7.122
LogEC50 (best-fit value) (S285A-1, run 1): -9.176
Span (best-fit value) (S285A-1, run 1): 90.01
Top (best-fit value) (S285A-1, run 1): 97.13
EC50 (S285A-1, run 1, read-out: EC50 (best-fit value)): 0.667 nM
Bottom (best-fit value) (S285A-2, run 2): 7.037
LogEC50 (best-fit value) (S285A-2, run 2): -9.15
Span (best-fit value) (S285A-2, run 2): 69.44
Top (best-fit value) (S285A-2, run 2): 76.48
EC50 (S285A-2, run 2, read-out: EC50 (best-fit value)): 0.707 nM
Bottom (best-fit value) (S285A-3, run 3): -3.857
LogEC50 (best-fit value) (S285A-3, run 3): -9.167
Span (best-fit value) (S285A-3, run 3): 92.79
Top (best-fit value) (S285A-3, run 3): 88.94
EC50 (S285A-3, run 3, read-out: EC50 (best-fit value)): 0.68 nM
Best-fit Bottom, cAMP inhibition (SSTR2 I195A-1, run 1): 1.138
